Measured values reported in patent US11866408B2, “N,N-dimethyltryptamine and related psychedelics and uses thereof” (Terran Biosciences Inc., priority 2021, dated 2024).

Legend:
[1] = Single intravenous dose pharmacokinetics study in rats (1 mg/kg IV; plasma levels of prodrug and of DMT or 5-MeO-DMT by LC-MS/MS); conditions: for AUC(0-t) / AUC(0-inf) / clearance / MRT / Vd / half-life: male, Sprague-Dawley, rat, iv, 1 mg/kg; for clearance: CL/CL_F (mL/min/kg); for MRT: MRT (h); for Vd: Vdss (L/kg); for half-life: t1/2 (h)
[2] = Single oral dose pharmacokinetics study in rats (10 mg/kg PO; plasma levels of prodrug and of metabolite DMT or 5-MeO-DMT by LC-MS/MS); conditions: for AUC(0-t) / Cmax: male, Sprague-Dawley, rat, po, 10 mg/kg
[3] = IV 1 mg/kg, plasma, analyte = dosed compound
[4] = plasma, AUC0-t (nM.hr), IV 1 mg/kg, analyte = dosed compound
[5] = plasma, AUC0-t (ng.hr/mL), IV 1 mg/kg, analyte = dosed compound
[6] = plasma, AUCinf (nM.hr), IV 1 mg/kg, analyte = dosed compound
[7] = plasma, AUCinf (ng.hr/mL), IV 1 mg/kg, analyte = dosed compound
[8] = plasma, IV 1 mg/kg, analyte = dosed compound
[9] = PO 10 mg/kg, plasma, analyte = dosed compound
[10] = plasma, AUC0-t (nM.hr), PO 10 mg/kg, analyte = dosed compound
[11] = plasma, AUC0-t (ng.hr/mL), PO 10 mg/kg, analyte = dosed compound
[12] = plasma, C0/Cmax (nM), PO 10 mg/kg, analyte = dosed compound
[13] = plasma, C0/Cmax (ng/mL), PO 10 mg/kg, analyte = dosed compound, mean/median
[14] = IV 1 mg/kg Plasma (t= 0 to Ihr)
[15] = plasma, IV 1 mg/kg Plasma (t= 0 to Ihr)
[16] = PO 10 mg/kg Plasma (t= 0 to Ihr)

Row | Structure (SMILES) | AUC % Back Extrapolation to C0 [1, 3] [%] | AUC % Extrapolation to infinity [1, 3] [%] | Clast [1, 3] [ng/mL] | tlast [1, 3] [h] | AUC(0-t) [1, 4] [µM·h] | AUC(0-t) [1, 5] [ng·h/mL] | AUC(0-inf) [1, 6] [µM·h] | AUC(0-inf) [1, 7] [ng·h/mL] | clearance [1, 8] [mL/min/kg] | MRT [1, 8] [min] | Vd [1, 8] [L/kg] | half-life [1, 8] [min] | Clast [2, 9] [ng/mL] | tlast [2, 9] [h] | AUC(0-t) [2, 10] [µM·h] | AUC(0-t) [2, 11] [ng·h/mL] | Cmax [2, 12] [nM] | Cmax [2, 13] [ng/mL] | AUC % Extrapolation to infinity [2, 9] [%] | CL/CL_F [2, 9] [mL/min/kg] | also measured
1 | CC(C)OP(=O)(OC(C)C)n1cc(CCN(C)C)c2ccccc21 [Diisopropylphosphonate DMT Prodrug, 2-(1-diisopropoxyphosphorylindol-3-yl)-N,N-dimethyl-ethanamine] | 36.7 | 3.21 | 5.22 | 4.00 | 0.862 | 304 | 0.881 | 311 | 70.2 | 52.1 | 4.21 | 51.9 | 28.2 | 7.00 | 1.83 | 644 | 554 | 195 |  |  | Bioavailability (%) Using AUC0-t ([2]; PO 10 mg/kg Plasma [Tlast = 4 h] vs IV 1 mg/kg): 16.1%; tlast ([2]; PO 10 mg/kg Plasma [Tlast = 4 h], analyte = dosed prodrug): 4.00 h; AUC(0-t) ([2]; plasma, AUC0-t (nM.hr), PO 10 mg/kg Plasma [Tlast = 4 h], analyte = dosed prodrug): 1.39 µM·h; AUC(0-t) ([2]; plasma, AUC0-t (ng.hr/mL), PO 10 mg/kg Plasma [Tlast = 4 h], analyte = dosed prodrug): 489 ng·h/mL; Cmax ([2]; plasma, C0/Cmax (nM), PO 10 mg/kg Plasma [Tlast = 4 h], analyte = dosed prodrug): 554 nM; Cmax ([2]; plasma, C0/Cmax (ng/mL), PO 10 mg/kg Plasma [Tlast = 4 h], analyte = dosed prodrug): 195 ng/mL
2 | COc1ccc2c(c1)c(CCN(C)C)cn2P(=O)(OC(C)C)OC(C)C [Diisopropylphosphonate 5-MeO-DMT Prodrug, 2-(1-diisopropoxyphosphoryl-5-methoxy-indol-3-yl)-N,N-dimethyl-ethanamine] | 7.68 | 7.01 | 5.32 | 4.00 | 0.273 | 104 | 0.295 | 113 | 150 | 83.4 | 12.2 | 60.6 | 2.84 | 24.1 | 0.921 | 352 | 210 | 80.4 | 7.77 | 450 | Bioavailability (%) Using AUCinf ([2]; PO 10 mg/kg vs IV 1 mg/kg, plasma, analyte = dosed compound): 33.8%
3 | CCOC(=O)n1cc(CCN(C)C)c2ccccc21 [Compound 20, Ethyl 3-[2-(dimethylamino)ethyl]indole-1-carboxylate] | 17.5 | 1.073 | 3.26 | 4.00 | 1.07 | 279 | 1.08 | 282 | 67.9 | 48.6 | 3.53 | 36.8 | 3.01 | 1.00 | 0.0184 | 4.78 | 44.3 | 11.5 |  |  | 
4 | CCOC(=O)n1cc(CCN(C)C)c2cc(OC)ccc21 [Compound 19, Ethyl 3-[2-(dimethylamino)ethyl]-5-methoxy-indole-1-carboxylate] | 59.7 | 0.104 | 2.95 | 5.50 | 14.4 | 4170 |  |  |  |  |  |  | 1.90 | 24.0 | 0.237 | 68.8 | 8.15 | 2.37 |  |  | 
5 | CN(C)CCc1c[nH]c2ccccc12 [DMT, N,N-dimethyltryptamine] | 66.4 | 0.690 | 7.12 | 1.50 | 1.14 | 214 | 1.15 | 216 | 85.8 | 9.12 | 0.774 | 8.76 | 1.52 | 24.0 | 0.314 | 59.1 | 69.4 | 13.1 | 42.6 | 1639 | AUC % Back Extrapolation to C0 [1, 14]: 67.2%; AUC % Extrapolation to infinity [1, 14]: 0.502%; Clast [1, 14]: 5.51 ng/mL; tlast [1, 14]: 1.00 h; AUC(0-t) ([1]; plasma, AUC0-t (nM.hr), IV 1 mg/kg Plasma (t= 0 to Ihr)): 1.13 µM·h; AUC(0-t) ([1]; plasma, AUC0-t (ng.hr/mL), IV 1 mg/kg Plasma (t= 0 to Ihr)): 213 ng·h/mL; AUC(0-inf) ([1]; plasma, AUCinf (nM.hr), IV 1 mg/kg Plasma (t= 0 to Ihr)): 1.14 µM·h; AUC(0-inf) ([1]; plasma, AUCinf (ng.hr/mL), IV 1 mg/kg Plasma (t= 0 to Ihr)): 214 ng·h/mL; clearance [1, 15]: 87.1 mL/min/kg; MRT [1, 15]: 7.92 min; Vd [1, 15]: 0.645 L/kg; half-life [1, 15]: 8.4 min; Clast [2, 16]: 3.18 ng/mL; tlast [2, 16]: 1.02 h; Bioavailability (%) Using AUC0-t ([2]; PO 10 mg/kg Plasma (t= 0 to Ihr) vs IV 1 mg/kg): 0.212%; AUC(0-t) ([2]; plasma, AUC0-t (nM.hr), PO 10 mg/kg Plasma (t= 0 to Ihr)): 0.0239 µM·h; AUC(0-t) ([2]; plasma, AUC0-t (ng.hr/mL), PO 10 mg/kg Plasma (t= 0 to Ihr)): 4.51 ng·h/mL; Cmax ([2]; plasma, C0/Cmax (nM), PO 10 mg/kg Plasma (t= 0 to Ihr)): 47.1 nM; Cmax ([2]; plasma, C0/Cmax (ng/mL), PO 10 mg/kg Plasma (t= 0 to Ihr)): 8.87 ng/mL
6 | COc1ccc2[nH]cc(CCN(C)C)c2c1 [Compound 5-MeO-DMT, 5-methoxy-N,N-dimethyltryptamine, reference compound] | 26.8 | 0.204 | 1.68 | 5.50 | 4.95 | 1080 | 4.95 | 1080 | 24.6 | 37.4 | 0.818 | 30.6 | 1.95 | 2.00 |  |  | 13.9 | 3.03 |  |  | 
